Reference: BindingDB's records for doi:10.1021/acs.biochem.5b01325 (University of Texas At San Antonio, 2016)

Molecular target: T1, (S)-6-hydroxynicotine oxidase (Paenarthrobacter nicotinovorans, UniProt O86101)
T1 sequence (O86101 whole entry): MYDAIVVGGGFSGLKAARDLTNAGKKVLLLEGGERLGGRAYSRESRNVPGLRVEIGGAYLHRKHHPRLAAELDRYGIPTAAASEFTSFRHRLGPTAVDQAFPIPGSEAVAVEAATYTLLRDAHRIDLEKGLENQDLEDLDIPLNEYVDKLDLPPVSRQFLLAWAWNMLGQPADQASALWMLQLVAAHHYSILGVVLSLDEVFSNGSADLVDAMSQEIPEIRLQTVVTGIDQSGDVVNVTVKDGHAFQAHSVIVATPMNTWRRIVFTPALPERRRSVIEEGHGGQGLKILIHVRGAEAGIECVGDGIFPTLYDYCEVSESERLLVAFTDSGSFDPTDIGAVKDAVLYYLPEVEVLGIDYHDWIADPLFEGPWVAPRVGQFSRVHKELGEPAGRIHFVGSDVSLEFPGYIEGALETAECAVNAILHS
Assay: Steady-State Kinetics
Settings: pH 8
Experimental: Initial rates of amine oxidation were routinely measured by monitoring oxygen consumption in 0.1 M Hepes (pH 8.0) and 0.1 M NaCl at 25 °C using an oxygen electrode (model 5300A, Yellow Springs Instruments, Yellow Springs, OH). With (R,S)-6-hydroxynicotine and (S)-6-hydroxynornicotine, the concentration of enzyme was typically 0.1 μM; this was increased to 4 μM for (S)-nicotine and (R,S)-4-(1-methyl pyrrolidine-2-yl)phenol. The concentration of oxygen was varied by bubbling the desired concentration of oxygen (62 μM to 1.25 mM) into the oxygen electrode cell for ∼10 min.

SMILES	Kd
CN1CCC[C@H]1c1ccc(O)cc1 [(S)-4-(1-methylpyrrolidine-2-yl)phenol]	2000 µM
CN1CCC[C@H]1c1ccc(=O)[nH]c1 [(S)-6-hydroxynicotine]	100 µM
O=c1ccc([C@@H]2CCCN2)c[nH]1 [(S)-6-hydroxynornicotine]	300 µM
